Assay results: ChEMBL document CHEMBL6103652, “Niacin Ester Derivative of Brefeldin A as a Potential Dual-Target Arf1/BMX Inhibitor for Bladder Cancer” (J Nat Prod, 2025)
≈ marks a conversion by molar mass, not a printed value. Calls of active or inactive are those of the source. The rule behind the calls is not given here.

Tests used:
HCT-116 = assay: Antiproliferative activity against human HCT-116 cells assessed as inhibition of cell proliferation measured after 72 hrs by MTT assay; format: functional, cell-based; conditions: HCT-116, 72 h
[1] = MRT(0 to t) in Sprague-Dawley rat at 5 mg/kg, iv measured upto 24 hrs; format: ADME, organism-based; conditions: in vivo
T-24 [2] = assay: Inhibition of cell migration in human T24 cells at 0.125 uM incubated for 12 hrs by scratch assay (reference value: 66 %); format: functional; conditions: T-24, 12 h
MB49 = assay: Antitumor activity against mouse MB49 cells implanted in male C57BL/6 mouse model assessed as reduction in tumor volume at 1 mg/kg,iv bid measured after 14 days; format: functional, organism-based; conditions: time 14.0 day
A549 = assay: Antiproliferative activity against human A549 cells assessed as inhibition of cell proliferation measured after 72 hrs by MTT assay; format: functional, cell-based; conditions: A549, 72 h
T-24 [3] = assay: Induction of cell cycle arrest in human T24 cells assessed as accumulation of cells at G2/M phase at 0.13 uM incubated for 24 hrs by RNase A/Propidium Iodide staining based flow cytometry analysis (reference value: 22.67 %); format: functional
[4] = Antiproliferative activity against […] MB49 cells assessed as inhibition of cell proliferation measured after 72 hrs by MTT assay; format: functional, cell-based; conditions: MB49, 72 h
T-24 [5] = assay: Induction of cell cycle arrest in human T24 cells assessed as accumulation of cells at G1 phase at 0.50 uM incubated for 24 hrs by RNase A/Propidium Iodide staining based flow cytometry analysis (reference value: 43.80 %); format: functional; conditions: dose 0.5 µM
[6] = Cytotoxicity against human LO2 cells measured after 72 hrs by MTT assay; format: toxicity, cell-based, L02
[7] = Clearance in Sprague-Dawley rat at 5 mg/kg, iv measured upto 24 hrs; format: ADME, organism-based; conditions: in vivo
[8] = Toxicity in ICR mouse assessed as body weight change at 688 mg/kg, IG administered once for 14 days; format: organism-based; conditions: in vivo, po, 336 h, time 14 day
T-24 [9] = assay: Induction in apoptosis in human T24 cells assessed as early apoptotic cells at 0.25 uM incubated for 48 hrs by Annexin V-FITC staining based flow cytometry analysis (reference value: 3.64 %); format: functional
[10] = Solubility of the compound in 5% saline and 50% PEG400; format: physicochemical
T-24 [11] = assay: Inhibition of cell migration in human T24 cells at 0.125 uM incubated for 24 hrs by scratch assay (reference value: 88 %); format: functional; conditions: T-24, 24 h
[12] = biological target: T1, Cytoplasmic tyrosine-protein kinase BMX (Homo sapiens) (UniProt P51813); assay: Induction of thermal stabilization of BMX in human T24 cells at 48 to 68 degreeC at 0.13 to 0.50 uM incubated for 6 hrs by CETSA analysis; format: cell-based; conditions: dose 0.13-0.5 µM
T1 sequence (whole entry): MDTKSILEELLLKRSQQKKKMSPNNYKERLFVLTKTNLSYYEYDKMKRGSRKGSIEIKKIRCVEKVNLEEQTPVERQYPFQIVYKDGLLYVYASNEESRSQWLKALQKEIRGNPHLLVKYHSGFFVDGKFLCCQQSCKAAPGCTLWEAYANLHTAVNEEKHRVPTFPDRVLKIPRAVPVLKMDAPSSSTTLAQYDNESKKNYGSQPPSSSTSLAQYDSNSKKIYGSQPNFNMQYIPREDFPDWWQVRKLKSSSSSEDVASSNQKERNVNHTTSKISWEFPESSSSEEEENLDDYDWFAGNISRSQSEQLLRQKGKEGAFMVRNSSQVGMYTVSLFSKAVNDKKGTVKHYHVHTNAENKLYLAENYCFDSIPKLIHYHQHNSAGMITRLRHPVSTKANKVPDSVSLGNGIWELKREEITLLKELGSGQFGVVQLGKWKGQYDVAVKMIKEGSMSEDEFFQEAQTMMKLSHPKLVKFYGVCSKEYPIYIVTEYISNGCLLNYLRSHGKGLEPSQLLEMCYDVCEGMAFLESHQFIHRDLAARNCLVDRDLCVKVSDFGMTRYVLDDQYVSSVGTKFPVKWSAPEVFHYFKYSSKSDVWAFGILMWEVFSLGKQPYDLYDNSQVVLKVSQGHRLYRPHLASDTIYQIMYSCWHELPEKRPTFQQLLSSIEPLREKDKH

T-24 [13] = assay: Antiproliferative activity against human T24 cells assessed as inhibition of cell proliferation at 0.25 uM incubated for 120 hrs by MTT assay relative to control; format: functional
T-24 [14] = assay: Induction in apoptosis in human T24 cells assessed as late apoptotic cells at 0.25 uM incubated for 48 hrs by Annexin V-FITC staining based flow cytometry analysis (reference value: 4.78 %); format: functional
[15] = Selectivity index, ratio of IC50 for cytotoxicity against human LO2 cells to IC50 for antiproliferative activity against human T24 cells; format: toxicity, cell-based; conditions: LO2 cells and T24 cells, read-out: Ratio IC50
[16] = Downregulation of p-AKT expression level in human T24 cells at 0.13 to 0.50 uM incubated for 24 hrs by Western blotting analysis relative to control; format: functional, T-24; conditions: dose 0.13-0.5 µM, at 0.13 to 0.5 µM
T-24 [17] = assay: Inhibition of cell migration in human T24 cells at 0.50 uM incubated for 24 hrs by scratch assay (reference value: 88 %); format: functional; conditions: T-24, 24 h
[18] = Antitumor activity against mouse MB49 cells implanted in male C57BL/6 mouse model assessed as tumor growth inhibition at 1 mg/kg,iv bid measured after 14 days relative to control; format: functional; conditions: MB49, 336 h, time 14 day, read-out: TGI
T-24 [19] = assay: Induction in apoptosis in human T24 cells assessed as necrotic cells at 0.25 uM incubated for 48 hrs by Annexin V-FITC staining based flow cytometry analysis (reference value: 1.14 %); format: functional
T-24 [20] = assay: Induction in apoptosis in human T24 cells assessed as early apoptotic cells at 0.13 uM incubated for 48 hrs by Annexin V-FITC staining based flow cytometry analysis (reference value: 3.64 %); format: functional
T-24 [21] = assay: Induction of cell cycle arrest in human T24 cells assessed as accumulation of cells at S phase at 0.13 uM incubated for 24 hrs by RNase A/Propidium Iodide staining based flow cytometry analysis (reference value: 31.27 %); format: functional
T-24 [22] = assay: Induction of cell cycle arrest in human T24 cells assessed as accumulation of cells at S phase at 0.50 uM incubated for 24 hrs by RNase A/Propidium Iodide staining based flow cytometry analysis (reference value: 31.27 %); format: functional; conditions: dose 0.5 µM
[23] = Toxicity in male C57BL/6 mouse allografted with mouse MB49 cells assessed as tumor cell apoptosis at 1 mg/kg,iv bid measured after 14 days by H and E staining based analysis; format: organism-based; conditions: in vivo, 336 h, time 14 day
[24] = Toxicity in male C57BL/6 mouse allografted with mouse MB49 cells assessed as body weight change at 1 mg/kg,iv bid measured after 14 days; format: organism-based; conditions: in vivo, 336 h, time 14 day
L1210 = assay: Antiproliferative activity against mouse L1210 cells assessed as inhibition of cell proliferation measured after 72 hrs by MTT assay; format: functional, cell-based; conditions: L1210, 72 h
T-24 [25] = assay: Induction of cell cycle arrest in human T24 cells assessed as accumulation of cells at S phase at 0.25 uM incubated for 24 hrs by RNase A/Propidium Iodide staining based flow cytometry analysis (reference value: 31.27 %); format: functional

Compound: C[C@H]1CCC/C=C/[C@@H]2C[C@H](O)C[C@H]2[C@H](OC(=O)c2cccnc2)/C=C/C(=O)O1
- IC50 (HCT-116): 580 nM
- MRT last at 24 h [1]: 8.4 min
- wound closure at 0.125 µM (T-24 [2]): 22%
- Activity (MB49): Active
- IC50 (A549): 230 nM
- Activity (T-24 [3]): 22.53%
- IC50 [4]: 4770 nM
- Activity (T-24 [5]): 63.82%
- IC50 at 72 h [6]: 790 nM
- clearance [7]: 68 mL/min/kg
- Activity [8]: Non-toxic
- Activity (T-24 [9]): 6.75%
- solubility [10]: 5000 µg/mL (≈ 13 mM)
- wound closure at 0.125 µM (T-24 [11]): 44%
- Activity [12]: Active
- inhibition at 0.25 µM (T-24 [13]): 91%
- Activity (T-24 [14]): 23.01%
- selectivity ratio [15]: 3.59
- Activity [16]: 46%
- wound closure at 0.5 µM (T-24 [17]): 17%
- inhibition in vivo at 1 mg/kg [18]: 51%
- Activity (T-24 [19]): 3.33%
- Activity (T-24 [20]): 5.52%
- Activity (T-24 [21]): 28.6%
- Activity (T-24 [22]): 19.52%
- Activity [23]: Non-toxic
- Activity [24]: Non-toxic
- IC50 (L1210): 6180 nM
- Activity (T-24 [25]): 29.56%
